By EC50 is commonly meant the midpoint of the concentration-response curve. A word on the IC50: it is the concentration at which inhibition is half-maximal.

This is an account of results in patent US20250170265A1 (priority 2023, published 2025).

The test system of data set [1] is pBR322. The data set is classed as biochemical.
Data set [2] has as its system supercoiled pBR322 plasmid DNA. Type of data set: biochemical.
Data set [3] can be described thus: Stability of diazonium compounds (NMR in D2O with acetonitrile internal standard). The data set is classed as physicochemical.
For data set [4], the system named is supercoiled pBR322 plasmid DNA. Conditions: read-out: EC50 value.
The subject of data set [5] is supercoiled pBR322 plasmid DNA.
For data set [6], the system named is linearized (EcoRV-HF-digested) pBR322 double stranded DNA.
Data set [7] relates to HeLa cells.
Method: General cell culture protocol: HeLa cells were grown in DMEM growth media (GIBCO 11995065) with 10% FBS (GIBCO A5670401) in 75 cm^2 surface treated culture dishes (Fisherbrand FB012937) and were incubated in a cell culture chamber (37° C. with 5% CO2). Cells were kept at a maximum confluency of 80% and passaged up to 20 times. For each passage, the cells were washed with 1×PBS (GIBCO 20012027), detached from the plate by incubation with 0.25% Trypsin-EDTA (GIBCO 25200072) for 3-4 minutes in the cell culture chamber, and then diluted with growth media. The cells were spun down at 300×g at 4° C. for 5 minutes, resuspended with fresh growth media, and replated in a new flask.
Cell viability assay and IC50 procedure: The media in the cell culture dish was aspirated, and the cells were washed with 1×PBS. The cells were detached from the plate by 4-minute incubation with 0.25% Trypsin-EDTA in the cell culture chamber. The cells were then diluted with DMEM and were spun down at 300×g at 4° C. for 5 minutes. The media was aspirated, and the cell pellet was resuspended in fresh DMEM. The cells were counted and seeded in 6-well culture plates at 50,000 cells/well and incubated overnight. Alongside the 6-well plates, 35 mm glass bottom confocal plates (Fisher Scientific NC0409658) were also seeded with 50,000 cells/plate. 24 hours after the initial seeding, the media in the plates were aspirated and the cells were washed with 1×PBS. […] The wash buffer was aspirated from the plates and 2 mL of the corresponding diazonium dilutions was added to the respective wells in the 6-well plates, all in triplicate, in addition to the confocal plates. All plates were incubated in ambient light for 45 minutes in the cell culture hood and then for 1 hour in the cell culture chamber (37° C. with 5% CO2). Control wells with 2 mL 1×PBS pH 6.6 alone with no diazonium as well as additional control wells with 2 mL DMEM alone with no diazonium, all in triplicate, were also incubated alongside the wells with the diazonium solutions. The plates were then removed from the incubators and the solutions from all the dishes were aspirated and replaced with 2 mL of fresh DMEM. The plates were incubated in the cell culture chamber for 3 days. After the 3-day incubation, the respective cell viability of each well was measured using the PrestoBlue™ Cell Viability Procedure. To each well was added 200 μL of 10× PrestoBlue™ Cell Viability Reagent (ThermoFisher Scientific A13261) and the plates were then incubated in the cell culture chamber for 3 hours. The plates were then analyzed using a plate reader (SpectraMax iD5) by measuring the fluorescence at an excitation of 560 nm and emission of 590 nm. […]
Data set [8] deals with supercoiled pBR322 plasmid DNA. Conditions: for EC50: 525 nm.

Several values for one entry are separate records, joined by “and”; a condition that tells them apart may be missing. Identical values can stand only once. Like-named read-outs stand apart in the source and are kept apart here.

Consider `Nc1cccc2c(N)cccc12` [1,5-diaminonaphthalene, reference compound], for which the “cleavage of pBR322 (gel pattern)” value in data set [1] was “no cleavage was observed”.
As for `F[B-](F)(F)F.N#[N+]c1ccccc1` [Compound 1, benzenediazonium tetrafluoroborate], the “DNA cleavage potency (in words)” value in data set [2] is given as “limited activity”. In addition, the EC50 in data set [2] (read-out: EC50) is 18800 nM.
For the compound `COc1ccc([N+]#N)cc1.F[B-](F)(F)F` [Compound 5, 4-methoxy-benzene-1-diazonium tetrafluoroborate], the EC50 in data set [2] (read-out: EC50 value) was 69800 nM.
Same read-out and setting: next, `N#[N+]c1ccc([N+](=O)[O-])c2ccccc12` [Compound 7, 4-nitro-naphthalene-1-diazonium tetrafluoroborate]: 531 nM.
For the compound `F[B-](F)(F)F.F[B-](F)(F)F.N#[N+]c1cccc2c([N+]#N)cccc12` [Compound 10, naphthalene-1,5-bisdiazonium tetrafluoroborate], the EC50 in data set [2] (read-out: EC50 value) amounted to 31.7 nM. In addition, the diazonium/IS ratio in data set [3] (1 hour) worked out at 0.59; in data set [3] (2 hours), 0.56; in data set [3] (6 hours) it was 0.49; in data set [3] (24 hours) it was 0.41; in data set [3] (T0 (immediately after sample preparation)), 0.62. Moreover, the “cleavage of pBR322 (gel pattern)” value in data set [1] (500 nM, 525 nm irradiation 1.5 hours) is “two new bands”.
Turning to “(R)-[1,1′-binaphthalene]-2,2′-bisdiazonium tetrafluoroborate [Compound 23]”, in data set [2] (read-out: EC50 value), the EC50 was determined as 42 nM.
Consider “(S)-[1,1′-binaphthalene]-2,2′-bisdiazonium tetrafluoroborate [Compound 24]”, for which, in data set [2] (read-out: EC50 value), the EC50 worked out at 140 nM.
Consider “N^1,N^3,N^5-tris(benzene-4-diazonium)benzene-1,3,5-tricarboxamide tetrafluoroborate [Compound 29]”, for which the “DNA cleavage potency (in words)” value in data set [2] is reported as “no notable improvement”. Moreover, the EC50 in data set [2] (read-out: EC50 value) is 101 nM.
For the compound “benzophenone-3,3′-bisdiazonium tetrafluoroborate [Compound 18]”, the 50% effective concentration (EC50) in data set [2] (read-out: EC50 value) came out at 31.5 nM.
For the compound “benzophenone-4,4′-bisdiazonium tetrafluoroborate [Compound 17]”, the EC50 in data set [2] (read-out: EC50 value) was 24 nM.
“ethidium bisdiazonium tetrafluoroborate [Compound 26]”: the “DNA cleavage potency (in words)” value in data set [2] was “only modest potency”. The 50% effective concentration (EC50) in data set [2] (read-out: EC50 value) stood at 136 nM.
On the same counts, the results for “tetrakis(benzene-4-diazonium)ethylene tetrafluoroborate [Compound 27]” are “excellent potency” and 33 nM.
Take “tetrakis(benzene-4-diazonium)methane tetrafluoroborate [Compound 28]”: in data set [2], the “DNA cleavage potency (in words)” value is “excellent potency”. The EC50 in data set [2] is 0.00214 µg/mL; in data set [2] (read-out: EC50 value), 2.76 nM; in data set [4], 3.62 nM and 13.7 nM and 14.9 nM; in data set [5] (read-out: DNA cleavage EC50 value, in the dark without cysteine), 976 nM and ~1000 nM and 1000 nM; in data set [5] (read-out: EC50 value, presence of cysteine in the dark) it was 30.8 nM; in data set [6] (read-out: EC50 value, linearized pBR322, green light 525 nm, supercoiled pBR322 as internal standard), 126 nM. The EC50 was 172 nM in data set [8] (degassed deionized water) and 1.64 nM in data set [8] (standard deionized water, run alongside as control). Also, the “concentrations giving noticeable cleavage into low molecular weight fragments” value in data set [6] (pre-linearized pBR322 (Form III, 40 μM/bp), 525 nm light in water for 1 hour) is on record as not below 100 nM. In addition, the “plate confluency after 3 days” value in data set [7] (1.25 μM) is recorded as “over 90%”; in data set [7] (10 μM) it was “less than 10%”. Also, in data set [7] (ambient light 45 min then 1 h at 37° C., 3-day incubation), the “IC50 (cell viability)” value stood at 5.23 µg/mL. For the same compound, the IC50 in data set [7] (read-out: IC50 (cell viability), ambient light 45 min then 1 h at 37° C., 3-day incubation) worked out at 6710 nM. Besides, in data set [8], the “decrease in activity, degassed vs standard deionized water” value was determined as 2 log scale.
